Common to all, as to experiment: DTP human tumour cell line panel, 48 h
The subject of assay [1] is NCI-H23.
Assay [2] deals with NCI-H226.
In assay [3] the test system is ACHN.
For assay [4], the system named is U-251.
Assay [5] deals with SW-620.
The subject of assay [6] is HOP-92.
In assay [7] the test system is SNB-19.
For assay [8], the system named is HCC 2998.
For assay [9], the system named is OVCAR-5.
For assay [10], the system named is HT-29.
Assay [11] has as its system OVCAR-8.
In assay [12] the test system is A498.
Assay [13] concerns UACC-257.
Assay [14] relates to COLO 205.
For assay [15], the system named is SK-MEL-2.
The test system of assay [16] is NCI-H460.
Assay [17] deals with CCRF-CEM.
For assay [18], the system named is HL-60.

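Compound exposure: 48 hours, 5 concentrations, 96-well plates. GI50 = concentration required for 50% inhibition of growth.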 Calls of active or inactive are those of the source. Cut-off read from the data, not from the text of the source: active = GI50 up to about 1.1 µM and inactive = higher. Bounds are passed on as bounds.

In the case of `CCOC(=O)CSC(=O)NCCCl`, the GI50 in [1], in assay [2], in assay [3], in assay [4], in [5] and in [6] was > 100 µM (inactive) in each case. Moreover, the GI50 in [7], in [8], in [9], in [10], in [11] and in assay [12] was > 100 µM (inactive) each time. Besides, the GI50 in [13], in [14], in assay [15] and in assay [16] was > 100 µM (inactive) throughout.
In the case of `Clc1cc2nsnc2c(Cl)n1`, the GI50 in assay [1] is 19.1 µM (inactive); in assay [2], 20.6 µM (inactive); in assay [3], 32.5 µM (inactive); in assay [4], 20.3 µM (inactive); in assay [5] it was 10.2 µM (inactive); in [17], 6.03 µM (inactive). In addition, the GI50 in [6] was 16.6 µM (inactive); in assay [7], 19 µM (inactive); in [8], > 100 µM (inactive); in assay [9], 43 µM (inactive); in [10], 21.7 µM (inactive); in [12], > 100 µM (inactive). The GI50 in [13] was 26.7 µM (inactive); in assay [14], 15.3 µM (inactive); in assay [15] it was 17.2 µM (inactive); in assay [18], 14.1 µM (inactive); in assay [16], 38.5 µM (inactive).
Turning to `O=C1C(=C2CCCC2)CCC1CN1CCCCC1` (configuration not stated), the GI50 in [1] was 18.7 µM (inactive); in [4], > 100 µM (inactive); in assay [5] it was 16.4 µM (inactive); in assay [17], 14.3 µM (inactive); in [6], 19.5 µM (inactive); in [7], > 100 µM (inactive). In addition, the GI50 in assay [8] is 16.3 µM (inactive); in [9], 19.8 µM (inactive); in assay [10] it was 20.4 µM (inactive); in [11], 21.5 µM (inactive); in assay [12] it was 19.4 µM (inactive); in assay [13], 19.4 µM (inactive). For the same compound, the GI50 in [14] is 25.7 µM (inactive); in [15], 16.5 µM (inactive); in assay [18], 4.63 µM (inactive); in [16], > 10 µM (inactive).
As for `COC(=O)C1Cc2c([nH]c3ccccc23)C=N1` (configuration not stated), the GI50 in assay [1], in [2], in assay [3], in assay [4], in assay [5] and in assay [17] was > 100 µM (inactive) in each case. Moreover, the GI50 in assay [6], in assay [7], in assay [8], in assay [9], in assay [10] and in assay [11] was > 100 µM (inactive) each time. In addition, the GI50 in [12], in assay [13], in [14], in [18] and in [16] was > 100 µM (inactive) each time.
For the compound `CC(=O)Nc1ccc(C(=O)NN2C(=O)C(Cl)C2c2cccc([N+](=O)[O-])c2)cc1` (configuration not stated), the GI50 in assay [1], in assay [2], in assay [3], in assay [4], in [5] and in [17] was > 100 µM (inactive) in each case. In addition, the GI50 in assay [6], in [7], in assay [8], in assay [9], in assay [10] and in [11] was > 100 µM (inactive) each time. In addition, the GI50 in assay [13], in assay [14], in assay [15], in [18] and in assay [16] was > 100 µM (inactive) in each case.
As to `CCCCCC(/C=C/c1ncccc1OCCCCCC(=O)O)=N\NC1=NCCN1`, the GI50 is > 100 µM (inactive) in assay [2]; > 100 µM (inactive) in assay [3]; 85.1 µM (inactive) in [5]; 53.6 µM (inactive) in [17]; 91 µM (inactive) in assay [6]; > 100 µM (inactive) in [7]. The GI50 in assay [8] was > 100 µM (inactive); in assay [9] it was > 100 µM (inactive); in assay [10], > 100 µM (inactive); in assay [11], > 100 µM (inactive); in assay [14], 53.8 µM (inactive); in [15], 48.9 µM (inactive). In addition, the GI50 is 57.8 µM (inactive) in assay [18] and 51.9 µM (inactive) in assay [16].
On to `COc1cc(-c2cc(O)c3cc4c(cc3n2)OCO4)cc(OC)c1OC`, for which the GI50 in assay [1] is 56.2 µM (inactive); in assay [3] it was 34.7 µM (inactive); in assay [4] it was 60 µM (inactive); in assay [5] it was > 100 µM (inactive); in assay [17], > 100 µM (inactive); in assay [6], 20.7 µM (inactive). Moreover, the GI50 in [7] is 40.3 µM (inactive); in [8] it was > 100 µM (inactive); in [10], > 100 µM (inactive); in [11], 75.9 µM (inactive); in [14], > 100 µM (inactive); in assay [15], 92.7 µM (inactive). For the same compound, the GI50 in assay [18] and in assay [16] was > 100 µM (inactive) throughout.
Consider `NC1C(O)C(O)C(CO)OC1n1cc(F)c(=O)[nH]c1=O` (configuration not stated), for which the GI50 in assay [1], in assay [2], in assay [3], in [4], in [5] and in [17] was > 100 µM (inactive) throughout. Also, the GI50 in [6], in assay [7], in assay [8], in assay [9], in [10] and in [13] was > 100 µM (inactive) throughout. For the same compound, the GI50 in assay [14], in assay [15], in assay [18] and in assay [16] was > 100 µM (inactive) in each case.
Regarding `COC(=O)c1sc(=O)n(-c2ccccc2)c1SCc1ccccc1`, the GI50 in [1], in assay [2], in assay [3], in assay [4], in assay [5] and in assay [17] was > 100 µM (inactive) throughout. Also, the GI50 in [6] is 30.1 µM (inactive); in [7] it was > 100 µM (inactive); in assay [8], > 100 µM (inactive); in [9] it was > 100 µM (inactive); in assay [10], > 100 µM (inactive); in [11], > 100 µM (inactive). For the same compound, the GI50 in assay [13], in [14], in [15], in [18] and in [16] was > 100 µM (inactive) in each case.
Turning to `COc1ccc(C(c2ccc(C(C)C)cc(=O)c2O)c2ccc3cccnc3c2O)cc1` (configuration not stated), the GI50 in assay [1] is 0.349 µM (active); in assay [2] it was 0.991 µM (active); in assay [3], 0.274 µM (active); in [4], 0.438 µM (active); in assay [5], 3.68 µM (inactive); in assay [17], 0.604 µM (active). Also, the GI50 in [6] was 0.235 µM (active); in [9], 1.58 µM (inactive); in assay [10], 3.07 µM (inactive); in assay [11], 1.08 µM (active); in [14], 1.05 µM (active); in assay [15], 2.02 µM (inactive). Moreover, the GI50 in assay [18] is 0.863 µM (active); in assay [16], 0.297 µM (active).
With `C=CC1(C)CCC2=C(CCC3C(C)(C(=O)OC)CCCC23C)C1=O` (configuration not stated), the GI50 in assay [1] was 19.5 µM (inactive); in assay [2], 23.8 µM (inactive); in [3], 17.7 µM (inactive); in [4], 15.6 µM (inactive); in assay [5] it was 17.6 µM (inactive); in [17], 21.4 µM (inactive). In addition, the GI50 was 38.4 µM (inactive) in [7]; 16 µM (inactive) in [9]; 17 µM (inactive) in assay [10]; 29.8 µM (inactive) in assay [11]; 14.8 µM (inactive) in assay [12]; 22.8 µM (inactive) in assay [13]. For the same compound, the GI50 was 19.1 µM (inactive) in assay [14], 17.9 µM (inactive) in assay [15], 28.7 µM (inactive) in assay [18] and 18.3 µM (inactive) in assay [16].
As for `OCCN1CCN(CCO)Cc2ccccc2OCCOc2ccccc2C1`, the GI50 in assay [1], in assay [2], in assay [3], in [4], in [5] and in [17] was > 100 µM (inactive) each time. Also, the GI50 in [6] is > 100 µM (inactive); in [7] it was > 100 µM (inactive); in assay [9], > 100 µM (inactive); in assay [10] it was 96.8 µM (inactive); in assay [11] it was > 100 µM (inactive); in assay [12], > 100 µM (inactive). Besides, the GI50 in assay [13], in [14], in assay [15] and in [16] was > 100 µM (inactive) throughout.
Take `COc1ccc(N(CC(=O)O)S(=O)(=O)c2ccccc2)cc1`: the GI50 in assay [1], in [2], in assay [3], in [4], in assay [5] and in [17] was > 100 µM (inactive) in each case. In addition, the GI50 in assay [6], in assay [7], in assay [9], in assay [10], in [11] and in assay [12] was > 100 µM (inactive) each time. For the same compound, the GI50 in [13], in assay [14], in assay [15], in assay [18] and in assay [16] was > 100 µM (inactive) each time.

The term GI50 denotes the concentration that inhibits growth by half.

Source of the values: ChEMBL document CHEMBL1201862, “PubChem BioAssay data set” (2004).
